Laboratory results published in article PMC9995496, “A screen for MeCP2-TBL1 interaction inhibitors using a luminescence-based assay” (Scientific Reports, 2023).
Structures can show the parent of a compound that is named as a salt. Peptide text beside a SMILES is read from it. * marks the point of attachment. Cbz = O=C(OCc1ccccc1)*; CH2F = FC*

The compounds below were run on PRKACA-PRKAR2A interaction (SmBiT-PRKACA / LgBiT-PRKAR2A), protein kinase A. Conditions: counter-screen for NanoLuc interference, 0.5 h, 20 µM, inhibitor, Inh (PKA).
Set-up: NanoLuc complementation counter-screen in cell extract, PRKACA with PRKAR2A, loss of luminescence, detects NanoLuc interference

Structure (SMILES)	Inh (PKA) [%]
C[C@@H]1CCN(C(=O)CC#N)C[C@@H]1N(C)c1ncnc2[nH]ccc12 [UM0128176:02, Tofacitinib (CP-690550,Tasocitinib)]	-2.944
CCCc1nn(C)c2c(=O)[nH]c(-c3cc(S(=O)(=O)N4CCN(C)CC4)ccc3OCC)nc12 [UM0141628:01, Sildenafil]	-0.5342
COc1ccc2c3c1O[C@H]1C[C@@H](O)C=C[C@@]31CCN(C)C2 [UM0132882:02, Galanthamine HBr]	0.1906
COc1cc(Nc2ncc(F)c(Nc3ccc4c(n3)N(COP(=O)(O)O)C(=O)C(C)(C)O4)n2)cc(OC)c1OC [UM0142473:01, Fostamatinib (R788)]	53.12
C[C@H]1c2cccc(O)c2C(=O)C2=C(O)[C@]3(O)C(=O)C(C(N)=O)=C(O)[C@@H](N(C)C)[C@@H]3[C@@H](O)[C@@H]21 [UM0142036:01, Doxycycline HCl]	1.035

Same assay, conditions: counter-screen for NanoLuc interference; 0.5 h, 20 µM; inhibitor

Structure (SMILES)	Inh (PKA) [%]
COc1cc([C@@H]2c3cc4c(cc3[C@H](O)[C@H]3COC(=O)[C@@H]23)OCO4)cc(OC)c1OC [UM0141523:01, AXL1717]	8.722
COc1ccc(Cn2ccc3ccc(C(=O)NO)cc32)cc1 [UM0141698:01, PCI-34051]	4.873
COC(=O)[C@H](c1ccccc1Cl)N1CCc2sccc2C1 [UM0141874:01, Clopidogrel]	72.93
N#Cc1c(Oc2ccc(F)c(NC(=O)Cc3cccc(C(F)(F)F)c3)c2)ccc2nc(NC(=O)C3CC3)sc12 [UM0141960:01, TAK-632]	4.577
CC1=C(C(=O)Nc2cc3cn[nH]c3cc2F)C(c2ccc(C(F)(F)F)cc2)CC(=O)N1 (centres unmarked) [UM0141898:01, GSK429286A]	8.844
Cc1ccc2nc(NCCN)c3ncc(C)n3c2c1 [UM0142559:01, BMS-345541(free base)]	1.467
CC(C)(C)OC(=O)N[C@H]1CCCCC/C=C\[C@@H]2C[C@@]2(C(=O)NS(=O)(=O)C2CC2)NC(=O)[C@@H]2C[C@@H](OC(=O)N3Cc4cccc(F)c4C3)CN2C1=O [UM0141670:01, Danoprevir (RG7227)]	3.662
COc1ccc(S(=O)(=O)Nc2ccccc2CN(C)C/C=C/c2ccc(Cl)cc2)cc1 [UM0141573:01, KN-92 phosphate]	16.02
CN1CC[C@H](c2c(O)cc(O)c3c(=O)cc(-c4ccccc4Cl)oc23)[C@H](O)C1 [UM0142107:01, Flavopiridol hydrochloride]	4.692
COC(=O)C[C@H](NC(=O)[C@H](CCSC)NC(=O)[C@H](CCC(N)=O)NC(=O)[C@H](CC(=O)OC)NC(=O)OCc1ccccc1)C(=O)CF [UM0141428:01, Z-DQMD-FMK] (Cbz-D(OMe)QMD(OMe)-CH2F)	1.642
CC(C)[C@H]1C(=O)N[C@@H](CCCNC(=N)N)C(=O)NCC(=O)N[C@@H](CC(=O)O)C(=O)N[C@H](Cc2ccccc2)C(=O)N1C [UM0142112:01, Cilengitide]	0.5722
CCCCN1CCCCC1C(=O)Nc1c(C)cccc1C (centres unmarked) [UM0142248:01, Bupivacaine HCl]	-0.8766
CC(C)CC(=O)Nc1n[nH]c2c1CN(C(=O)C1CCN(C)CC1)C2(C)C [UM0141891:01, PHA-793887]	3.326
Nc1nc(NCCNc2ncc(-n3ccnc3)c(-c3ccc(Cl)cc3Cl)n2)ccc1[N+](=O)[O-] [UM0142026:01, CHIR-98014]	80.31
O=C(O[C@H]1C[N+]2(CCCOc3ccccc3)CCC1CC2)C(O)(c1cccs1)c1cccs1 [UM0142325:01, Aclidinium Bromide]	1.77
O=S(=O)(c1ccccc1)N(CC(F)(F)F)c1ccc(C(O)(C(F)(F)F)C(F)(F)F)cc1 [UM0141452:01, T0901317]	30.09
CCO[C@@H]1OC(=O)C[C@@H]1NC(=O)[C@@H]1CCCN1C(=O)[C@@H](NC(=O)c1ccc(N)c(Cl)c1)C(C)(C)C [UM0141966:01, VX-765]	0.4442
CCC(=O)Nc1cccc(Oc2nc(Nc3ccc(N4CCN(C)CC4)cc3OC)ncc2Cl)c1 [UM0142226:01, WZ4003]	29.29
CC(C)(C)C#Cc1cc(N(C(=O)[C@H]2CC[C@H](C)CC2)[C@H]2CC[C@H](O)CC2)c(C(=O)O)s1 [UM0141672:01, VX-222 (VCH-222, Lomibuvir)]	8.385

Structure (SMILES)	Inh (PKA) [%]
COc1ccc(Cl)c(Nc2nc3ccccc3nc2NS(=O)(=O)c2cccc(NC(=O)C(C)(C)N)c2)c1 [UM0130997:02, XL147]	61.81
CC(C)=CC[C@@H](O)C1=CC(=O)c2c(O)ccc(O)c2C1=O [UM0133665:02, Shikonin]	46.09
Cn1c(=O)c(F)c(Nc2ccc(I)cc2F)c2c(=O)n(C[C@@H](O)CO)cnc21 [UM0142329:01, TAK-733]	15.12
Nc1nc2[nH]cnc2c(=S)[nH]1 [UM0141747:01, Thioguanine]	3.135
CN(NC(=O)CC(=O)NN(C)C(=S)c1ccccc1)C(=S)c1ccccc1 [UM0141826:01, Elesclomol (STA-4783)]	1.652
CNC(=O)c1nn(C)c2c1C(C)(C)Cc1cnc(Nc3ccc(N4CCN(C)CC4)cc3)nc1-2 [UM0142065:01, PHA-848125]	8.149
C=CC(=O)Nc1cccc(Oc2nc(Nc3ccc(N4CCN(C)CC4)cc3)ncc2Cl)c1 [UM0142142:01, WZ3146]	33.46
FC(F)(F)Oc1ccc(-c2ccc3nnc(C(F)(F)F)n3c2)cc1 [UM0142666:01, GS967]	6.579
COc1c2occc2cc2ccc(=O)oc12 [UM0134068:02, 8-Methoxypsoralen]	2.167
Cc1oncc1C(=O)Nc1ccc(C(F)(F)F)cc1 [UM0118141:03, Leflunomide]	16.35
O=C1NCCc2[nH]c(-c3ccncc3)cc21 [UM0141605:01, PHA-767491]	1.427
CCOc1cc([C@@H](CS(C)(=O)=O)N2C(=O)c3cccc(NC(C)=O)c3C2=O)ccc1OC [UM0141777:01, Apremilast (CC-10004)]	1.324
COc1ccc(C2CNC(=O)C2)cc1OC1CCCC1 (centres unmarked) [UM0141786:01, Rolipram]	-0.06153
CN(C)CCCCC(=O)Nc1ccc(NC(=S)NC(=O)c2ccc(C(C)(C)C)cc2)cc1 [UM0141976:01, Tenovin-6]	9.354
CCc1c(C(=O)C(N)=O)c2c(OCC(=O)O)cccc2n1Cc1ccccc1 [UM0141806:01, Varespladib (LY315920)]	1.134
CCC(CC)CC1(C(=O)Nc2ccccc2SC(=O)C(C)C)CCCCC1 [UM0141817:01, Dalcetrapib (JTT-705, RO4607381)]	16.33
CC[C@H](C)C(=O)O[C@H]1C[C@@H](C)C=C2C=C[C@H](C)[C@H](CC[C@@H]3C[C@@H](O)CC(=O)O3)[C@H]21 [UM0133001:02, Lovastatin]	15.39
CC1(C)CCC2=C(O1)c1ccccc1C(=O)C2=O [UM0133760:02, Beta-Lapachone]	9.4
C[C@]12CC[C@@H]3c4ccc(O)cc4CC[C@H]3[C@@H]1CC[C@@H]2OC(=O)CCC1CCCC1 [UM0142280:01, Estradiol Cypionate]	4.433

Structure (SMILES)	Inh (PKA) [%]
CNC(=O)CN1CCC(Oc2cc3c(Nc4cccc(Cl)c4F)ncnc3cc2OC)CC1 [UM0142022:01, AZD8931 (Sapitinib)]	6.017
N#Cc1ccc(NCCNCC(=O)N2CCC[C@H]2C#N)nc1 [UM0141834:01, NVP DPP 728 dihydrochloride]	-0.6384
COc1ccc(-n2nc(C(N)=O)c3c2C(=O)N(c2ccc(N4CCCCC4=O)cc2)CC3)cc1 [UM0141797:01, Apixaban]	1.88
Cc1ccc(NC(=O)c2cccc(C(C)(C)C#N)c2)cc1Nc1ccc2ncn(C)c(=O)c2c1 [UM0127965:02, AZ 628]	24.58
NS(=O)(=O)c1cc2c(cc1Cl)N=CNS2(=O)=O [UM0133622:02, Chlorothiazide]	0.9686
C=CC(=O)Nc1cccc(Nc2nc(Nc3ccc(OCCOC)cc3)ncc2F)c1 [UM0141522:01, AVL-292]	22.87
Cc1ccc(C(=O)c2cc(O)c(O)c([N+](=O)[O-])c2)cc1 [UM0141823:01, Tolcapone]	63.96
CN(C)CCc1c[nH]c2ccc(C[C@H]3COC(=O)N3)cc12 [UM0121308:03, Zolmitriptan]	-0.4605
CNC[C@H](O)c1cccc(O)c1 [UM0120096:03, Phenylephrine HCl]	0.7851
CC(C)=CCC/C(C)=C/CC/C(C)=C/CSc1ccccc1C(=O)O [UM0141623:01, Salirasib]	61.94
CO/N=C(\C(=O)N[C@@H]1C(=O)N2C(C(=O)O)=C(COC(C)=O)CS[C@H]12)c1csc(N)n1 [UM0133637:02, Cefotaxime (sodium salt)]	1.378
C=CC(=O)N1CCC[C@@H](n2nc(-c3ccc(Oc4ccccc4)cc3)c3c(N)ncnc32)C1 [UM0141493:01, PCI-32765 (Ibrutinib)]	23.88
CN1CCN2c3ccccc3Cc3ccccc3C2C1 (centres unmarked) [UM0118451:03, Mianserin HCl]	11.82
C[C@H]1COC2=C1C(=O)C(=O)c1c2ccc2c1CCCC2(C)C [UM0134017:02, Cryptotanshinone]	20.28
CC(C)(F)C[C@H](N[C@@H](c1ccc(-c2ccc(S(C)(=O)=O)cc2)cc1)C(F)(F)F)C(=O)NC1(C#N)CC1 [UM0141461:01, Odanacatib (MK-0822)]	3.507
CCc1cnn2c(NCc3ccc[n+]([O-])c3)cc(N3CCCC[C@H]3CCO)nc12 [UM0142032:01, Dinaciclib (SCH727965)]	1.224
Nc1nc(=O)c2nc(CNc3ccc(C(=O)N[C@@H](CCC(=O)O)C(=O)O)cc3)cnc2[nH]1 [UM0132892:02, Folic acid]	2.052
N#Cc1ccc2[nH]c(O)c(-c3ccc(CN4CCOCC4)cn3)c2c1 [UM0142298:01, AZD1080]	15.47
CNC(=O)c1c(-c2ccc(F)cc2)oc2cc(N(CCO)S(C)(=O)=O)c(C3CC3)cc12 [UM0141591:01, Nesbuvir]	3.406
